{
  "source": "patent US20020137929A1",
  "about": "“1 - (3-heterocyclylphenyl) isothiourea, -isourea, -guanidine and -amidine herbicidal agents” (Intellectual Property Department, BASF Aktiengesellschaft, priority 1998, published 2002)",
  "key": {"ZEAMX (Corn, Field)": {"tested_on": "ZEAMX (Corn, Field)", "assay": "Postemergence herbicidal evaluation", "type": "in vivo, Zea mays", "details": "postemergence", "method_in_brief": "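Herbicidal effect was judged by eye on a 0–9 scale covering stand, vigor, deformity, size and chlorosis, compared with controls, four to five weeks after seedlings about two weeks old were sprayed (40 psi, ~0.0156–0.500 kg/ha).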"}, "ABUTH (Velvetleaf)": {"tested_on": "ABUTH (Velvetleaf)", "assay": "Preemergence herbicidal evaluation", "type": "in vivo, Abutilon theophrasti", "details": "rated 4-5 weeks after treatment", "method_in_brief": "(§1)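 In this greenhouse assay, monocot and dicot seeds are planted in soil and treated prior to emergence with an aqueous acetone spray (about 0.0156-0.500 kg/ha). Plants are assessed visually against control on a 0-9 scale after 4-5 weeks.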"}, "AMBEL (Ragweed, Common)": {"tested_on": "AMBEL (Ragweed, Common)", "assay": "Preemergence herbicidal evaluation", "type": "in vivo, Ambrosia artemisifolia", "details": "rated 4-5 weeks after treatment", "method_in_brief": "as §1"}, "[1]": {"tested_on": "GLXMAW (Soybean, Williams)", "assay": "Preemergence herbicidal evaluation", "type": "in vivo, Glycine max, (L.) Merr. cv Williams", "details": "rated 4-5 weeks after treatment", "method_in_brief": "as §1"}, "ORYSAT (Rice, Tebonnet) [2]": {"tested_on": "ORYSAT (Rice, Tebonnet)", "assay": "Rice tolerance to post-transplant applications, flooded paddy conditions (Table III)", "type": "in vivo, Oryza sativa, (L.) Tebonnet", "method_in_brief": "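Two ten-day-old Tebonnet seedlings transplanted into flooded silt loam (water 1.5 to 3 cm above soil); three days later the water surface was treated with compound in aqueous/acetone 50/50 at about 0.0313 to 0.500 kg/ha. Visual 0-9 injury rating versus control after three to four weeks in greenhouse.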"}, "MOOVA (Monochoria)": {"tested_on": "MOOVA (Monochoria)", "assay": "Postemergence weed control under flooded paddy conditions", "type": "in vivo, Monochoria vaginalis", "details": "postemergence weeds, 3-4 weeks after treatment", "method_in_brief": "(§2)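 With weeds 3 to 5 cm tall and rice at the 1.5 to 2.5 leaf stage, containers were flooded and water held 1.5 to 3 cm above soil. Compounds in 50/50 v/v aqueous/acetone went into the flood water at about 0.0313 to 0.500 kg/ha a.i. Effects were visually rated 0–9 against controls after three to four weeks in the greenhouse.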"}, "[3]": {"tested_on": "SAGPY (Arrowhead (Pygmaea))", "assay": "Postemergence weed control under flooded paddy conditions", "type": "in vivo, Sagittaria pygmaea", "details": "postemergence weeds, 3-4 weeks after treatment", "method_in_brief": "as §2"}, "ORYSAT (Rice, Tebonnet) [4]": {"tested_on": "ORYSAT (Rice, Tebonnet)", "assay": "Rice tolerance to post-transplant applications, flooded paddy conditions (Table IV)", "type": "in vivo, Oryza sativa, (L.) Tebonnet", "excerpt": "Results of herbicide evaluation are expressed on a rating scale (0-9). The scale is based upon a visual observation of plant stand, vigor, malformation, size, chlorosis and overall plant appearance as compared with a control.\nPlastic containers containing weeds which are 3 to 5 cm tall and rice seedlings at the 1.5 to 2.5 leaf stage are flooded with water. The water is maintained at 1.5 to 3 cm above the soil surface for the duration of the experiment. Test compounds are applied as aqueous/ acetone mixtures 50/50 v/v directly into the flood water to provide the equivalent of about 0.0313 to 0.500 kg/ha of active ingredient. The treated containers are placed on greenhouse benches and cared for in accordance with conventional greenhouse procedures. Three to four weeks after treatment, the test is terminated and each container is examined and herbicidal effect rated according to the rating system provided in Example 37. The compounds evaluated are reported by compound number given in Example 37."}},
  "data": [
    {"smiles": "CCOC(=O)/C=C1/S/C(=N/c2cc(-n3c(=O)cc(C(F)(F)F)n(C)c3=O)c(F)cc2Cl)N(CC(=O)OCC)C1=O", "note": "[Compound 14]", "values": [
      {"measurement": "ZEAMX herbicidal rating", "setting": "ZEAMX (Corn, Field); rate 0.0156 kg/ha", "result": 7.0},
      {"measurement": "ZEAMX herbicidal rating", "setting": "ZEAMX (Corn, Field); rate 0.0313 kg/ha", "result": 7.0},
      {"measurement": "ZEAMX herbicidal rating", "setting": "ZEAMX (Corn, Field); rate 0.0625 kg/ha", "result": 7.5},
      {"measurement": "ZEAMX herbicidal rating", "setting": "ZEAMX (Corn, Field); rate 0.1250 kg/ha", "result": 7.5},
      {"measurement": "ABUTH preemergence herbicidal rating", "setting": "ABUTH (Velvetleaf); rate 0.0313 kg/ha", "result": 1.0},
      {"measurement": "ABUTH preemergence herbicidal rating", "setting": "ABUTH (Velvetleaf); rate 0.0625 kg/ha", "result": 2.0},
      {"measurement": "ABUTH preemergence herbicidal rating", "setting": "ABUTH (Velvetleaf); rate 0.1250 kg/ha", "result": 9.0},
      {"measurement": "ABUTH preemergence herbicidal rating", "setting": "ABUTH (Velvetleaf); rate 0.2500 kg/ha", "result": 9.0},
      {"measurement": "ABUTH preemergence herbicidal rating", "setting": "ABUTH (Velvetleaf); rate 0.5000 kg/ha", "result": 9.0},
      {"measurement": "AMBEL preemergence herbicidal rating", "setting": "AMBEL (Ragweed, Common); rate 0.0313 kg/ha", "result": 0.0},
      {"measurement": "AMBEL preemergence herbicidal rating", "setting": "AMBEL (Ragweed, Common); rate 0.0625 kg/ha", "result": 1.0},
      {"measurement": "AMBEL preemergence herbicidal rating", "setting": "AMBEL (Ragweed, Common); rate 0.1250 kg/ha", "result": 6.5},
      {"measurement": "AMBEL preemergence herbicidal rating", "setting": "AMBEL (Ragweed, Common); rate 0.2500 kg/ha", "result": 9.0},
      {"measurement": "AMBEL preemergence herbicidal rating", "setting": "AMBEL (Ragweed, Common); rate 0.5000 kg/ha", "result": 9.0},
      {"measurement": "GLXMAW preemergence herbicidal rating", "setting": "[1]; rate 0.0313 kg/ha", "result": 0.0},
      {"measurement": "GLXMAW preemergence herbicidal rating", "setting": "[1]; rate 0.0625 kg/ha", "result": 0.0},
      {"measurement": "GLXMAW preemergence herbicidal rating", "setting": "[1]; rate 0.1250 kg/ha", "result": 2.0},
      {"measurement": "GLXMAW preemergence herbicidal rating", "setting": "[1]; rate 0.2500 kg/ha", "result": 3.0},
      {"measurement": "GLXMAW preemergence herbicidal rating", "setting": "[1]; rate 0.5000 kg/ha", "result": 6.0},
      {"measurement": "Herbicidal rating ORYSAT (rice tolerance)", "setting": "ORYSAT (Rice, Tebonnet) [2]; 0.0313 kg/ha, post-transplant rice, flooded paddy, rated 3-4 weeks after treatment", "result": 0.0},
      {"measurement": "Herbicidal rating ORYSAT (rice tolerance)", "setting": "ORYSAT (Rice, Tebonnet) [2]; 0.0625 kg/ha, post-transplant rice, flooded paddy, rated 3-4 weeks after treatment", "result": 0.5},
      {"measurement": "Herbicidal rating ORYSAT (rice tolerance)", "setting": "ORYSAT (Rice, Tebonnet) [2]; 0.1250 kg/ha, post-transplant rice, flooded paddy, rated 3-4 weeks after treatment", "result": 1.0},
      {"measurement": "Herbicidal rating ORYSAT (rice tolerance)", "setting": "ORYSAT (Rice, Tebonnet) [2]; 0.2500 kg/ha, post-transplant rice, flooded paddy, rated 3-4 weeks after treatment", "result": 0.0},
      {"measurement": "Herbicidal rating MOOVA", "setting": "MOOVA (Monochoria); rate 0.0313 kg/ha", "result": 6.8},
      {"measurement": "Herbicidal rating MOOVA", "setting": "MOOVA (Monochoria); rate 0.0625 kg/ha", "result": 6.8},
      {"measurement": "Herbicidal rating MOOVA", "setting": "MOOVA (Monochoria); rate 0.1250 kg/ha", "result": 6.8},
      {"measurement": "Herbicidal rating MOOVA", "setting": "MOOVA (Monochoria); rate 0.2500 kg/ha", "result": 4.5},
      {"measurement": "Herbicidal rating SAGPY", "setting": "[3]; rate 0.0313 kg/ha", "result": 0.0},
      {"measurement": "Herbicidal rating SAGPY", "setting": "[3]; rate 0.0625 kg/ha", "result": 0.0},
      {"measurement": "Herbicidal rating SAGPY", "setting": "[3]; rate 0.1250 kg/ha", "result": 0.0},
      {"measurement": "Herbicidal rating SAGPY", "setting": "[3]; rate 0.2500 kg/ha", "result": 0.0},
      {"measurement": "Herbicidal rating ORYSAT (rice tolerance)", "setting": "ORYSAT (Rice, Tebonnet) [4]; rate 0.0313 kg/ha, flooded paddy, post-transplant rice, 3-4 weeks after treatment", "result": 0.0},
      {"measurement": "Herbicidal rating ORYSAT (rice tolerance)", "setting": "ORYSAT (Rice, Tebonnet) [4]; rate 0.0625 kg/ha, flooded paddy, post-transplant rice, 3-4 weeks after treatment", "result": 0.3},
      {"measurement": "Herbicidal rating ORYSAT (rice tolerance)", "setting": "ORYSAT (Rice, Tebonnet) [4]; rate 0.1250 kg/ha, flooded paddy, post-transplant rice, 3-4 weeks after treatment", "result": 0.5},
      {"measurement": "Herbicidal rating ORYSAT (rice tolerance)", "setting": "ORYSAT (Rice, Tebonnet) [4]; rate 0.2500 kg/ha, flooded paddy, post-transplant rice, 3-4 weeks after treatment", "result": 0.0}
    ]},
    {"smiles": "CCOC(=O)CN1C(=O)C(=Cc2ccccc2)SC1=Nc1cc(-n2c(=O)cc(C(F)(F)F)n(C)c2=O)c(F)cc1Cl", "note": "[Compound 19, Ethyl 5-benzylidene-2-{{2-chloro-5-[3,6-dihydro-3-methyl-2,6-dioxo-4-(trifluoromethyl)-1(2H)-pyrimidinyl]-4-fluorophenyl}imino}-4-oxo-3-thiazolidineacetate]", "values": [
      {"measurement": "ZEAMX herbicidal rating", "setting": "ZEAMX (Corn, Field); rate 0.0158 kg/ha", "result": 4.0},
      {"measurement": "ZEAMX herbicidal rating", "setting": "ZEAMX (Corn, Field); rate 0.0315 kg/ha", "result": 4.5},
      {"measurement": "ZEAMX herbicidal rating", "setting": "ZEAMX (Corn, Field); rate 0.0630 kg/ha", "result": 5.0},
      {"measurement": "ABUTH preemergence herbicidal rating", "setting": "ABUTH (Velvetleaf); rate 0.1250 kg/ha", "result": 9.0},
      {"measurement": "ABUTH preemergence herbicidal rating", "setting": "ABUTH (Velvetleaf); rate 0.2500 kg/ha", "result": 9.0},
      {"measurement": "AMBEL preemergence herbicidal rating", "setting": "AMBEL (Ragweed, Common); rate 0.1250 kg/ha", "result": 0.0},
      {"measurement": "AMBEL preemergence herbicidal rating", "setting": "AMBEL (Ragweed, Common); rate 0.2500 kg/ha", "result": 1.0},
      {"measurement": "GLXMAW preemergence herbicidal rating", "setting": "[1]; rate 0.1250 kg/ha", "result": 0.0},
      {"measurement": "GLXMAW preemergence herbicidal rating", "setting": "[1]; rate 0.2500 kg/ha", "result": 0.0},
      {"measurement": "Herbicidal rating ORYSAT (rice tolerance)", "setting": "ORYSAT (Rice, Tebonnet) [2]; in vivo", "result": 3.0},
      {"measurement": "Herbicidal rating MOOVA", "setting": "MOOVA (Monochoria); rate 0.1160 kg/ha", "result": 9.0},
      {"measurement": "Herbicidal rating MOOVA", "setting": "MOOVA (Monochoria); rate 0.2310 kg/ha", "result": 9.0},
      {"measurement": "Herbicidal rating MOOVA", "setting": "MOOVA (Monochoria); rate 0.4630 kg/ha", "result": 9.0},
      {"measurement": "Herbicidal rating SAGPY", "setting": "[3]; rate 0.1160 kg/ha", "result": 0.0},
      {"measurement": "Herbicidal rating SAGPY", "setting": "[3]; rate 0.2310 kg/ha", "result": 3.0},
      {"measurement": "Herbicidal rating SAGPY", "setting": "[3]; rate 0.4630 kg/ha", "result": 3.0},
      {"measurement": "Herbicidal rating ORYSAT (rice tolerance)", "setting": "ORYSAT (Rice, Tebonnet) [4]; in vivo", "result": 3.0}
    ]}
  ]
}
